Results reported in patent US20240124434A1, “ATF6 INHIBITORS AND USES THEREOF” (Altos Labs, Inc., priority 2018, published 2024).
In brackets after ≈: the same amount, converted by molar mass. Counter-ions that a name gives are not always drawn. Like-named read-outs stand apart in the source and are kept apart here.

Columns and labels:
[1] = test system: ATF6; assay: ERSE ATF6-luciferase reporter assay (thapsigargin-induced ER stress); format: cell-based, human; conditions: Homo sapiens, U2OS, thapsigargin-induced ER stress, U2-OS ATF6 luc reporter cells; for inhibition at 1 µM: 8 hr
[2] = In vitro microsomal stability, human liver microsomes; format: in vitro ADME; conditions: for half-life at 1 μM / half-life at […], 1 µM: human, read-out: T1/2 @ hLM; for Rem. @ hLM (%): remaining fraction after 30 min, 1 μM compound, 0.5 mg/mL human liver microsomes, 1 mM NADPH
Procedure: (§1) Compounds were incubated at a final concentration of 1 μM with 0.5 mg/mL human liver microsomes (hLM) (#HMMCPL; Thermo), mouse liver microsomes (mLM) (#MSMCPL; Thermo) or rat liver microsomes (rLM) (#RTMCPL; Thermo) and 1 mM reduced dihydronicotinamide-adenine dinucleotide phosphate (NADPH) (#N1630; Sigma) in 100 mM phosphate buffer (pH 7.4) at 37° C. The reactions were terminated at 0, 5, 15 and 30 min by the addition of cold acetonitrile containing 50 ng/mL propranolol as an internal standard. […] Verapamil hydrochloride (#V4369 Aldrich) was used as a positive control in all studies.

[3] = In vitro microsomal stability, mouse liver microsomes; format: in vitro ADME; conditions: for half-life at […], 1 µM / half-life at 1 μM: mouse, read-out: T1/2 @ mLM; for Rem. @ mLM (%): remaining fraction after 30 min, 1 μM compound, 0.5 mg/mL mouse liver microsomes, 1 mM NADPH
Procedure: as §1

[4] = In vitro microsomal stability, rat liver microsomes; format: in vitro ADME; conditions: for microsomal CLint at […], 1 µM / half-life at […], 1 µM / half-life at 1 μM / microsomal CLint at 1 μM: pH 7.4, rat liver microsomes; for microsomal CLint at […], 1 µM / microsomal CLint at 1 μM: intrinsic clearance, read-out: Clint @ rLM; for half-life at […], 1 µM / half-life at 1 μM: rat, read-out: T1/2 @ rLM; for Rem. @ rLM (%): remaining fraction after 30 min, 1 μM compound, 0.5 mg/mL rat liver microsomes, 1 mM NADPH
Procedure: as §1

[5] = Kinetic solubility (nephelometry); format: physicochemical; conditions: aqueous buffer, kinetic from dmso stock; PBS pH 7.4, 1% DMSO, 1 hour at 37° C., light scattering at 625 nm
Procedure: Concentration (μM) was then calculated by segmental regression. Amiodarone (#A8423 Aldrich) was used as positive control.

[6] = 8 h, 1 μM test compound, read-out: Inh. ATF6-Luc @ 1 μM [%]
[7] = dose-response 30 μM to 1 nM, read-out: IC50 ATF6-Luc reporter
[8] = pH 7.4, intrinsic clearance, human liver microsomes, read-out: Clint @ hLM
[9] = pH 7.4, intrinsic clearance, mouse liver microsomes, read-out: Clint @ mLM
[10] = 8 h, read-out: Inh. ATF6-Luc @ 1 μM [%], 1 μM test compound
[11] = read-out: IC50 ATF6-Luc reporter [μM], dose-response 30 μM to 1 nM

Structure (SMILES) | inhibition at 1 µM [1, 6] [%] | IC50 [1, 7] [µM] | half-life at 1 μM ([2]; human liver microsomes, pH 7.4) [min] | microsomal CLint at […], 1 µM [2, 8] [µL/min/mg] | Rem. @ hLM (%) [2] [%] | half-life at […], 1 µM ([3]; mouse liver microsomes, pH 7.4) [min] | microsomal CLint at […], 1 µM [3, 9] [µL/min/mg] | Rem. @ mLM (%) [3] [%] | microsomal CLint at […], 1 µM [4] [µL/min/mg] | Rem. @ rLM (%) [4] [%] | solubility kinetic at 1 h [5] [µM] | half-life at 1 μM [4] [min] | further results
CC(c1ccc(C(F)(F)F)cc1C(F)(F)F)n1cc(NC(=O)c2cc(-c3ccco3)on2)cn1 (stereo not drawn) [Compound 12, N-(1-{1-[2,4-bis(trifluoromethyl)phenyl]ethyl}-1H-pyrazol-4-yl)-5-(furan-2-yl) isoxazole-3-carboxamide] | > 50 | < 1 | 29.9 | 46 | 46.1 | 4.6 | 302 | 1.02 | 291 | 0.77 |  |  | half-life at […], 1 µM [4]: 4.8 min
O=C(Nc1cnn(C2CCc3ccccc32)c1)c1cc(-c2ccco2)on1 (stereo not drawn) [Compound 19, N-(1-(2,3-dihydro-1H-inden-1-yl)-1H-pyrazol-4-yl)-5-(furan-2-yl) isoxazole-3-carboxamide] | < 25 | > 10 |  |  |  |  |  |  |  |  | 9.37 (≈ 3.38 µg/mL) |  | 
C[C@H](c1ccc(F)cc1C(F)(F)F)n1cc(NC(=O)c2cc(-c3ccccn3)on2)cn1 [Compound 110, (R)—N-(1-(1-(4-fluoro-2-(trifluoromethyl)phenyl)ethyl)-1H-pyrazol-4-yl)-5-(pyridin-2-yl)isoxazole-3-carboxamide] | 25 to 50 | 1 to 10 | 27 | 51.3 | 39.72 |  | 97.7 | 20.03 | 28.7 | 60.99 | 4.68 (≈ 2.08 µg/mL) | 48.3 | half-life at 1 μM ([3]; mouse liver microsomes, pH 7.4): 14.2 min
Cc1nn([C@@H](C)c2ccc(C(F)(F)F)cc2C(F)(F)F)cc1NC(=O)c1cc(-c2ccccn2)on1 [Compound 100, (S)—N-(1-(1-(2,4-bis(trifluoromethyl)phenyl)ethyl)-3-methyl-1H-pyrazol-4-yl)-5-(pyridin-2-yl)isoxazole-3-carboxamide] |  |  | 38.2 | 36.2 | 53.3 | 19.1 | 72.6 | 34.3 | 33.4 | 51.4 | 4.68 (≈ 2.38 µg/mL) | 41.5 | inhibition at 1 µM [1, 10]: > 50%; IC50 [1, 11]: < 1 µM
CCC(c1ccc(C(F)(F)F)cc1C(F)(F)F)n1cc(NC(=O)c2cc(-c3ccccn3)on2)cn1 (stereo not drawn) [Compound 1, N-(1-(1-(2,4-bis(trifluoromethyl)phenyl)propyl)-1H-pyrazol-4-yl)-5-(pyridin-2-yl)isoxazole-3-carboxamide] | 25 to 50 | < 1 | 67.7 |  | 71.4 |  |  | 54.8 |  | 51.8 | 2.7 (≈ 1.38 µg/mL) | 32.4 | microsomal CLint at 1 μM [2, 8]: 20.5 µL/min/mg; half-life at 1 μM ([3]; mouse liver microsomes, pH 7.4): 35.1 min; microsomal CLint at 1 μM [3, 9]: 39.5 µL/min/mg; microsomal CLint at 1 μM [4]: 42.7 µL/min/mg
Cc1c(NC(=O)c2cc(-c3ccccn3)on2)cnn1[C@H](C)c1ccc(C(F)(F)F)cc1C(F)(F)F [Compound 97, (R)—N-(1-(1-(2,4-bis(trifluoromethyl)phenyl)ethyl)-5-methyl-1H-pyrazol-4-yl)-5-(pyridin-2-yl)isoxazole-3-carboxamide] | 25 to 50 | 1 to 10 | 53.6 | 25.9 | 59.3 |  | 52.2 | 44.5 | 23.6 | 64.4 | 2.92 (≈ 1.49 µg/mL) | 58.7 | half-life at 1 μM ([3]; mouse liver microsomes, pH 7.4): 26.6 min
CN(C(=O)c1cc(-c2ccccn2)on1)c1cnn(Cc2ccc(C(F)(F)F)cc2C(F)(F)F)c1 [Compound 103, N-(1-(2,4-bis(trifluoromethyl)benzyl)-1H-pyrazol-4-yl)-N-methyl-5-(pyridin-2-yl)isoxazole-3-carboxamide] | 25 to 50 | 1 to 10 |  | 258 | 2.1 | 5.12 | 271 | 0.94 |  | 5.24 | 9.37 (≈ 4.64 µg/mL) | 7.24 | half-life at […], 1 µM ([2]; human liver microsomes, pH 7.4): 5.38 min; microsomal CLint at 1 μM [4]: 191 µL/min/mg
C[C@H](c1ccc(C(F)(F)F)cc1C(F)(F)F)n1cc(NC(=O)c2cnc(-c3ccccn3)s2)cn1 [Compound 104, (R)—N-(1-(1-(2,4-bis(trifluoromethyl)phenyl)ethyl)-1H-pyrazol-4-yl)-2-(pyridin-2-yl)thiazole-5-carboxamide] |  |  |  | 18.9 | 76.44 | 108 | 12.9 | 83.18 |  | 92.9 | 2.34 (≈ 1.2 µg/mL) | 418 | inhibition at 1 µM [1, 10]: 25 to 50%; IC50 [1, 11]: 1 to 10 µM; half-life at […], 1 µM ([2]; human liver microsomes, pH 7.4): 73.2 min; microsomal CLint at 1 μM [4]: 3.32 µL/min/mg
CC(c1ccc(C(F)(F)F)cc1C(F)(F)F)n1cc(NC(=O)c2cc(-c3cccs3)on2)cn1 (stereo not drawn) [Compound 9, N-(1-(1-(2,4-bis(trifluoromethyl)phenyl)-ethyl)-1H-pyrazol-4-yl)-5-(thiophen-2-yl)isoxazole-3-carboxamide] | < 25 | 1 to 10 |  |  |  |  |  |  |  |  | 8.9 (≈ 4.45 µg/mL) |  | 
Cc1ccc(-c2cc(C(=O)Nc3cnn(Cc4ccc(C(F)(F)F)cc4C(F)(F)F)c3)no2)o1 [Compound 22, N-(1-(2,4-bis(trifluoromethyl)benzyl)-1H-pyrazol-4-yl)-5-(5-methylfuran-2-yl)isoxazole-3-carboxamide] | < 25 | 1 to 10 | 6.5 | 212 | 3.7 | 6.1 | 228 | 3.3 | 204 | 4.5 |  |  | half-life at […], 1 µM [4]: 6.8 min
O=C(Nc1cnn(Cc2ccc(C(F)(F)F)cc2C(F)(F)F)c1)c1nc(-c2cccc(F)c2)no1 [Compound 4, N-(1-(2,4-bis(trifluoromethyl)benzyl)-1H-pyrazol-4-yl)-3-(3-fluorophenyl)-1,2,4-oxadiazole-5-carboxamide formate] |  | > 10 |  |  |  |  |  |  |  |  |  |  | inhibition at 1 µM ([1]; 1 μM test compound, read-out: Inh. ATF6-Luc @ 1 μM [%]): < 25%
